From ChEMBL document CHEMBL1201862, “PubChem BioAssay data set” (2004)
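Tested at 5 concentrations; 48 h exposure; 96-well plates; endpoints linearly interpolated, else capped at highest concentration. At the GI50, growth is halved.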 Activity calls are given as the source filed them. Cut-off read from the data, not from the text of the source: active = GI50 up to about 1.1 µM and inactive = higher.

Assays:
Experiment in all cases: NCI tumour cell line growth inhibition, 48 h
[1] = system: CCRF-CEM
[2] = system: HL-60
[3] = system: HT-29
[4] = system: IGROV-1
[5] = system: RPMI-8226
[6] = system: SNB-19
[7] = system: U-251
[8] = system: UACC-257
[9] = system: UACC-62
[10] = system: UO-31
[11] = system: HCC 2998
[12] = system: Malme-3M
[13] = system: NCI-H522

Measured: GI50

O=[N+]([O-])c1ccccc1C1N2CCCCC2[C@@H]2c3[nH]c4ccccc4c3CCN12 (stereo partly drawn)
inactive: [1] 10.4 µM | [2] 3.7 µM | [3] 7.53 µM | [4] 15.6 µM | [5] 10.9 µM | [6] 14.9 µM | [7] 15.6 µM | [8] 13.7 µM | [9] 3.78 µM | [10] 11.3 µM

CC(C)OCN1COCN/C1=N/C#N
inactive: [11] > 100 µM | [2] > 100 µM | [3] 78.3 µM | [4] > 100 µM | [12] > 100 µM | [13] > 100 µM | [6] > 100 µM | [7] 42.2 µM | [8] > 100 µM | [9] > 100 µM | [10] > 100 µM

COC(=O)CCC(=O)C(C#N)c1ccc(Cl)cc1Cl (stereo not drawn)
inactive: [1] > 100 µM | [2] > 100 µM | [3] 4.97 µM | [4] > 100 µM | [12] > 100 µM | [13] > 100 µM | [5] > 100 µM | [6] > 100 µM | [7] > 100 µM | [8] > 100 µM | [9] > 100 µM | [10] > 100 µM

CCOC(=O)NC(=O)c1cn(CCCOC(=O)CCCCCCCCCCC(=O)OCCCn2cc(C(=O)NC(=O)OCC)c(=O)[nH]c2=O)c(=O)[nH]c1=O
inactive: [1] > 100 µM | [11] > 100 µM | [2] > 100 µM | [3] > 100 µM | [4] > 100 µM | [12] > 100 µM | [5] > 100 µM | [6] 49 µM | [7] > 100 µM | [8] > 100 µM | [9] > 100 µM | [10] > 100 µM

CCc1cccc(C(C)C)c1NC(=O)/C(=N\NC(N)=O)C(C(=O)OC)c1cnc2ccccc2n1 (stereo not drawn)
inactive: [1] 39 µM | [11] 40.6 µM | [2] 31.8 µM | [3] 35.8 µM | [4] 40.7 µM | [12] 34.4 µM | [13] 24.9 µM | [6] 51.3 µM | [7] 40.2 µM | [8] 32.1 µM | [9] 26 µM | [10] > 100 µM

O=C(/C=C(\O)C(=O)O)/C=C(\O)c1ccccc1
inactive: [1] > 4.65 µM | [2] > 4.65 µM | [3] > 4.65 µM | [4] > 4.65 µM | [6] > 4.65 µM | [7] > 4.65 µM | [8] > 4.65 µM | [9] > 4.65 µM

COC(=O)C1=C(c2ccc3c(c2)OCO3)OC(c2cc(OC)c(OC)c(OC)c2)C1 (stereo not drawn)
inactive: [1] 3.88 µM | [11] 5.77 µM | [3] 1.29 µM | [4] 2.75 µM | [12] 4.74 µM | [5] 8.87 µM | [6] 1.59 µM | [7] 2.34 µM | [8] 7.18 µM | [9] 1.81 µM | [10] 8.26 µM

c1ccc(C2N3CCCCC3[C@@H]3c4[nH]c5ccccc5c4CCN23)nc1 (stereo partly drawn)
inactive: [1] > 100 µM | [2] 59.7 µM | [3] > 100 µM | [4] > 100 µM | [5] > 100 µM | [6] > 100 µM | [7] > 100 µM | [8] > 100 µM | [9] 96.8 µM | [10] > 100 µM

CCOC(=O)[C@@]12C(C)=CC(=O)O[C@]1(C)C1C(=O)NC(=O)C12 (stereo partly drawn)
inactive: [1] > 100 µM | [11] > 100 µM | [2] > 100 µM | [3] > 100 µM | [4] > 100 µM | [12] > 100 µM | [5] > 100 µM | [6] > 100 µM | [7] > 100 µM | [8] > 100 µM | [9] 17.4 µM | [10] > 100 µM
